Results on 5 compounds are retold here after paper PMC9610793, “Novel Aporphine- and Proaporphine–Clerodane Hybrids Identified from the Barks of Taiwanese Polyalthia longifolia (Sonn.) Thwaites var. pendula with Strong Anti-DENV2 Activity” (Pharmaceuticals, 2022).

In data set [1] the test system is DENV2. Briefly: In vitro anti-DENV2 post-infection assay: DENV2 RNA level by RT-qPCR in DENV2-infected Huh-7 cells. It counts as cell-based, DENV serotype 2 (strain 16681). Conditions: for IC50 / EC50: Dengue virus; for IC50: DENV2, Huh-7, 72 h, read-out: IC50 (concentration of the compound resulting in a 50% inhibition in virus production); for SI (selectivity index, SI = CC50/IC50): CC50 in uninfected Huh-7 cells / IC50 against DENV2; for EC50: DENV2-infected Huh-7 cells, range over compounds 1–4. As for the experimental part: Concerning their biological activity, the anti-DENV2 activity of polyalongarins A–D (1–4) was examined using post-infection assay. The DENV2-infected Huh-7 cells were incubated with each of 1–4 at a concentration of 5, 10, or 20 μM for 72 hrs (0.2 μM celastrol and 0.1% DMSO served as positive control and mock control, respectively). […] Based on previous reports, a compound that diminishes the DENV activity by 90% but presents a 50% cytotoxic concentration (CC50) > 15 μM is considered a “hit”. By this definition, compounds 1–4 are good hits without doubt.
(§1) Figure 5 In vitro anti-DENV2 assay for 1–4. (A) DENV2-infected/uninfected Huh-7 cells were incubated with celastrol (Cela, 0.2 μM, positive control) or indicated concentrations of 1–4 (5 to 25 μM) for 72 h. Total DENV2 RNA expression (%) was extracted and quantified. The DENV2 RNA level was measured by RT-qPCR. The DENV2 RNA expression was normalized by cellular GAPDH mRNA. (B) DENV2-infected Huh-7 cells were treated with 10 μM of 1–4. The NS2B protein expression was analyzed by western blotting with anti-NS2B and anti-GAPDH antibodies (a loading control). (C) The cell viability (%) was determined by the XTT method. Treatment with 0.1% DMSO served as a mock control. The results are expressed as the means ± standard errors of the means (SEM) of triplicate experiments.
Huh-7 human liver carcinoma cell line, purchased from Bioresources Collection and Research Center, Taiwan, were maintained in Dulbecco’s modified Eagle’s medium (DMEM) supplemented with 10% fetal bovine serum (FBS), 1% non-essential amino acids (NEAA), and 1% penicillin and streptomycin at 37 °C in a humidified 5% CO2 incubator. The DENV serotype 2 (strain 16681) was directly from the Centers for Disease Control, Department of Health, Taiwan, and was amplified in Aedes albopictus C6/36 cell line (CRL-1660, ATCC, USA). C6/36 cells were cultured in RPMI 1640 medium supplemented with 2% FBS. Huh-7 cells were seeded at a density of 5 × 10^4 cells/mL in the 24-well plate for 16–20 h and then infected with DENV2 at a multiplicity of infection (MOI) of 0.1 PFU/cell for 2 h at 37 °C. The viral titer was determined in a plaque assay in the Huh-7 cells. Then, DENV2-infected Huh-7 cells were washed with PBS and refilled, respectively, with DMEM−2% FBS medium containing […] (positive control), 0.1% DMSO (mock control), and various indicating concentration of test compounds. After incubation at 37 °C for 72 h, DENV2-infected Huh-7 cells were harvested and cell lysates were prepared for quantification of DENV RNA by RT-qPCR. Total cellular RNA was extracted using Total RNA Miniprep Purification Kit (GMbiolab, Taiwan) according to the manufacturer’s instructions.
(In general: In qPCR the cycle at which signal appears reflects the starting amount.)

Data set [2] can be described thus: Cytotoxic assay (XTT cell viability). Type of data set: cell-based. The following applies: human, uninfected Huh-7 cells, read-out: CC50 (concentration of the compound causing a 50% growth inhibition of uninfected Huh-7 cells). As for the experimental part:
as §1
In structural elucidation, the optical rotations were determined using a JASCO P-1020 polarimeter (Jasco Co., Tokyo, Japan); the ultraviolet spectra (UV) were recorded on a JASCO V530 UV/VIS spectrophotometer; the circular dichroism spectroscopy (CD) were recorded on a JASCO J-815 spectrophotometer; the infrared spectra (IR) were recorded on a Mattson Genesis II FT-IR spectrophotometer (Thermo Nicolet, Madison, WI, USA); electrospray ionization mass (ESIMS) and high-resolution ESIMS data were measured using a VG Biotech Quattro 5022 mass spectrometer (VG Biotech, UK); nuclear magnetic resonance (NMR) spectra were collected on a Varian Unity Inova-400 MHz NMR system; the single crystal X-ray diffraction of pure compounds was determined by Bruker APEX II X-ray single crystal diffractometer. In chemical isolation and separation, column chromatography (CC) was applied including silica gel 60 (70–230 and 230–400 mesh, Merck, Darmstadt, Germany), Sephadex LH-20 (Pharmacia), and pre-coated silica gel TLC plates (aluminum Merck Silica gel 60 F254). […] In biological evaluation, cell viability/cytotoxicity assay was evaluated using CellTiter 96 AQueous One Solution Cell Proliferation Assay (Promega, Madison, WI, USA) according to the manufacturer’s instructions, where the color intensity was detected at 490 nm using a 550 BioRad plate-reader for determining the number of viable cells in proliferation. Computational modeling analyzed by PyMOL 2.0 software (creator is Warren L. DeLano; published by Schrödinger, Inc. 2017; and the latest vision is PyMOL 2.5 vision).
Huh-7 cells were seeded in 96-well plates at a density 5 × 10^4 cells/well in 120 μL of culture medium and incubated for 6 hr in a humidified CO2 (5%) atmosphere. […] Then, the XTT method was applied to cell viability evaluation: cells were dyed by 2,3-bis(2-methyloxy-4-nitro-5-sulfophenyl)-2H-tetrazolium-5-carboxanilide and recorded by an enzyme-linked immunosorbent assay (ELISA) plate reader (at UV 490 nm). […]
On the technique in general: Formazan colour is commonly taken as a measure of viable cells.

A value given as a limit tells only on which side of the number the result lay.

`CC1=C(O)C(=O)C=C2C1=CC=C1[C@@]2(C)CC[C@@]2(C)[C@@H]3C[C@](C)(C(=O)O)CC[C@]3(C)CC[C@]12C` [Celastrol, reference compound]: the IC50 in data set [1] stood at 0.12 ± 0.01 µM.
In the case of `COc1cc2c3c(c1OC)C1(C=CC(=O)C=C1)C[C@H]3N([C@@H]1OC(=O)C=C1CC[C@@]1(C)[C@H](C)CC[C@@]3(C)C(C)=CCC[C@H]13)CC2` [polyalongarin D (4), Polyalongarin D], in data set [1], the “SI (selectivity index, SI = CC50/IC50)” value is on record as 14.9; the IC50 is 6.36 ± 0.09 µM; the concentration giving a half-maximal response (EC50) (commonly the concentration needed to bring the measured effect to its halfway point) was 2.8 to 6.4 µM. Besides, the CC50 at 72 h in data set [2] is 94.5 ± 10.2 µM.
The corresponding values for `COc1cc2c(cc1O)CC1c3c(cc(OC)c(OC)c3-2)CCN1C1OC(=O)C=C1CCC1(C)C(C)CCC2(C)C(C)=CCCC21` (stereo not shown) [polyalongarin C (3), Polyalongarin C] are 21.3, 3.24 ± 0.16 µM, 2.8 to 6.4 µM and 69.1 ± 14 µM.
As to `CC1=CCCC2C1(C)CCC(C)C2(C)CCC1=CC(=O)OC1N1CCc2cc3c(c4c2C1Cc1ccccc1-4)OCO3` (stereo not shown) [polyalongarin A (1), Polyalongarin A], in data set [1], the IC50 amounted to 4.46 ± 0.12 µM and the EC50 was 2.8 to 6.4 µM. In addition, the CC50 at 72 h in data set [2] is more than 200 µM.
In the case of `COc1c2c3c(c(OC)c1OC)-c1ccccc1C[C@H]3N([C@@H]1OC(=O)C=C1CC[C@@]1(C)[C@H](C)CC[C@@]3(C)C(C)=CCC[C@H]13)CC2` [polyalongarin B (2), Polyalongarin B], in data set [1], the “SI (selectivity index, SI = CC50/IC50)” value is given as 18; the IC50 came out at 2.8 ± 0.23 µM; the EC50 was in the range of 2.8 to 6.4 µM. Further, in data set [2], the CC50 at 72 h is 50.4 ± 10.2 µM.
